Assay results as given in patent US12577217B2, “15-PGDH inhibitor” (KYORIN Pharmaceutical Co., Ltd., priority 2019, dated 2026).

Molecular target: T1, recombinant human 15-PGDH (Homo sapiens, UniProt P15428)
T1 construct: purchased R&D Systems
T1 sequence (P15428 1-266): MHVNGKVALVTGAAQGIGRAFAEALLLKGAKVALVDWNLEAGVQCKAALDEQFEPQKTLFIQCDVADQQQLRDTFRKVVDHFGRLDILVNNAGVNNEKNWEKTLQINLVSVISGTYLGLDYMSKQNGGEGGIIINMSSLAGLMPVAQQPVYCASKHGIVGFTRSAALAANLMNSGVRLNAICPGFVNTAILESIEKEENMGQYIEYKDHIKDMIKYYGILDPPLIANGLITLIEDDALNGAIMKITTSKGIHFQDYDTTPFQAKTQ
Assay: 15-PGDH enzyme inhibition test
Assay type: biochemical
Conditions: 4 nM recombinant human 15-PGDH, 30 μM PGE2, 1 mM NAD+, 60 minutes after starting the reaction; read-out: IC50 Value
In short: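 4 nM recombinant human enzyme pre-incubated with compound 12 min at room temperature in 50 mM Tris-HCl pH 8.0 with 0.01% Tween 20 and 0.01% bovine gamma globulin. Reaction started with 30 μM PGE2 and 1 mM NAD+, read after 60 min by fluorescence (ex 340/em 440 nm). IC50 from concentration-response curve.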

Row | Structure (SMILES) | IC50
1 | O=C(c1cnc2c(c1)CCCN2c1cnc2c(=O)[nH]cnc2c1)N1CCC(F)(F)CC1 [Example 1-192] | < 10 nM
2 | Cn1nc2cc(N3CCN(c4ncc(Cl)s4)c4cc(C(=O)N5CCC(F)(F)CC5)cnc43)ccn2c1=O [Example 30-4] | < 10 nM
3 | O=C(c1cnc2c(c1)CCCN2c1cc2c(cn1)C(=O)N(C1COC1)C2)N1CCCCC1 [Example 1-74] | 10 to 100 nM
4 | Cn1nc2cc(N3CCOc4cc(C(=O)N5CCC[C@@H]5C(=O)O)cnc43)ccn2c1=O [Example 35-2] | > 100 nM
5 | CO[C@@H]1CCCN(C(=O)c2cnc3c(c2)OCCN3c2ccn3c(=O)n(C)nc3c2)C1 [Example 18-1, (R)-7-(7-(3-Methoxypiperidine-1-carbonyl)-2,3-dihydro-4H-pyrido[3,2-b] [1,4]oxazin-4-yl)-2-methyl-[1,2,4]triazolo[4,3-a]pyridin-3(2H)-one] | < 10 nM
6 | CN1Cc2cc(N3CCOc4cc(C(=O)N5CCc6ccccc6C5)cnc43)ccc2C1=O [Example 8-192] | < 10 nM
7 | CN1CCN(C(=O)c2cnc3c(c2)OCCN3c2ccc3c(c2)CN(C)C3=O)CC1 [Example 8-189] | < 10 nM
8 | O=C(O)c1ccc(N2CCCCOc3cc(C(=O)N4CCCCC4)ccc32)cc1 [Example 2-6] | < 10 nM
9 | O=C(O)c1ccc(N2CCCCOc3cc(C(=O)N4CCCCC4)cnc32)cc1 [Example 2-9] | < 10 nM
10 | O=C(c1cnc2c(c1)CCCN2c1ccn2c(=O)[nH]nc2c1)N1CCC[C@H](CF)C1 [Example 1-145] | < 10 nM
11 | COC(=O)c1cc2sc(N3CCOc4cc(C(=O)N5CCCCC5)cnc43)cc2s1 [Example 1-24] | < 10 nM
12 | Cn1nc2cc(N3CCOc4cc(C(=O)N5C[C@H]6C[C@@H](C5)C6)cnc43)ccn2c1=O [Example 8-40] | < 10 nM
13 | C[C@@H]1CCCN(C(=O)c2cnc3c(c2)OCCN3c2ccn3c(=O)n(C)nc3c2)C1 [Example 8-31] | < 10 nM
14 | COC(=O)c1ccc(N2CCOc3cc(C(=O)N4CCCCC4)cnc32)cc1 [Example 1-261] | < 10 nM
15 | Cn1nc2cc(N3CCOc4cc(C(=O)N5CCC[C@H](CF)C5)cnc43)ccn2c1=O [Example 8-65] | < 10 nM
16 | C[C@@H]1CCCCN1C(=O)c1cnc2c(c1)OCCN2c1ccn2c(=O)n(C)nc2c1 [Example 8-21] | < 10 nM
17 | O=C(O)c1ccccc1N1CCOc2cc(C(=O)N3CCCCC3)cnc21 [Example 2-36] | > 100 nM
18 | C[C@@H]1COc2cc(C(=O)N3CCCCC3)ccc2N(c2ccn3c(=O)n(C)nc3c2)C1 [Example 1-96] | < 10 nM
19 | CCn1nc2cc(N3CCCc4cc(C(=O)N5CCCC[C@@H]5C)cnc43)ccn2c1=O [Example 8-158] | < 10 nM
20 | CC1CN(C(=O)c2cnc3c(c2)OCCN3c2ccc3c(c2)CN(C)C3=O)CCC1(F)F (centres unmarked) [Example 8-210] | < 10 nM
21 | Cn1nc2cc(N3CCCc4cc(C(=O)N5CC=CCC5)cnc43)ccn2c1=O [Example 8-129] | < 10 nM
22 | CS(=O)(=O)c1ccc(N2CCOc3cc(C(=O)N4CCCCC4)cnc32)cc1Cl [Example 1-254] | 10 to 100 nM
23 | Cn1nc2cc(N3CCCc4cc(C(=O)N5CCC(F)CC5)cnc43)ccn2c1=O [Example 8-140] | < 10 nM
24 | Cc1cc(N2CCOc3cc(C(=O)N4CCCCC4)ccc32)n2ncnc2n1 [Example 24-1, (4-(5-Methyl-[1,2,4]triazolo[1,5-a]pyrimidin-7-yl)-3,4-dihydro-2H-benzo[b][1,4]oxazin-7-yl)(piperidin-1-yl)methanone] | > 100 nM
25 | Cn1nc2cc(N3CCOc4cc(C(=O)N5CCCC6(C5)CC(F)(F)C6)cnc43)ccn2c1=O [Example 8-95] | 10 to 100 nM
26 | Cn1nc2cc(N3CCOc4cc(C(=O)NCCCCO)cnc43)ccn2c1=O [Example 8-176] | 10 to 100 nM
27 | N#Cc1ccc(N2CCOc3cc(C(=O)N4CCCCC4)cnc32)cc1 [Example 1-241] | < 10 nM
28 | O=C(c1cnc2c(c1)OCCN2c1ccccc1)N1CCCCC1 [Example 1-232] | 10 to 100 nM
29 | CNC(=O)c1ccc(N2CCCc3cc(C(=O)N4CCCCC4)cnc32)cn1 [Example 1-210] | < 10 nM
